# Assays:
# Assay in all cases: viability relative to DMSO control (fraction); higher = less drug effect (more viable cells)
# Conditions in all cases: 48 h
# [1] = tested on: primary AML patient cells (S056)
# Method in brief: (§1)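 Using 384-well plates with compounds already plated at five concentrations, one well per concentration, 4 × 10^4 primary mononuclear tumour cells were added per well. Cells were Ficoll-isolated from blood or bone marrow or came from processed lymph node, fresh or cryopreserved. They were kept for 48 h at 37 °C and 5% CO2 in RPMI-1640 supplemented with penicillin/streptomycin, L-glutamine and human serum, and viability was read as CellTiter-Glo luminescence relative to the median of 16 inner DMSO wells.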
# [2] = tested on: primary AML patient cells (S085)
# Method in brief: as §1
# [3] = tested on: primary FL patient cells (S087)
# Method in brief: as §1
# [4] = tested on: primary CLL patient cells (S031)
# Method in brief: as §1
# [5] = tested on: primary T-NHL patient cells (S058)
# Method in brief: as §1
# [6] = tested on: primary AML patient cells (S019)
# Method in brief: as §1
# [7] = tested on: primary MCL patient cells (S041)
# Method in brief: as §1
# [8] = tested on: primary AML patient cells (S012)
# Method in brief: as §1
# [9] = tested on: primary AML patient cells (S006)
# Method in brief: as §1
# [10] = tested on: primary FL patient cells (S022)
# Method in brief: as §1
# [11] = tested on: primary DLBCL patient cells (S049)
# Method in brief: as §1
# [12] = tested on: primary MCL patient cells (S063)
# Method in brief: as §1
# [13] = tested on: primary ALL patient cells (S048)
# Method in brief: as §1
# [14] = tested on: primary AML patient cells (S011)
# Method in brief: as §1
# [15] = tested on: primary DLBCL patient cells (S076)
# Method in brief: as §1
# [16] = tested on: primary ALL patient cells (S088)
# Method in brief: as §1
# [17] = tested on: primary AML patient cells (S079)
# Method in brief: as §1
smiles,measurement,setting,value
CS(=O)(=O)c1ccc(C(=O)Nc2ccc(Cl)c(-c3ccccn3)c2)c(Cl)c1 [Vismodegib],viability,[1]; 0.024 µM,0.986
same,viability,[1]; 0.12 µM,1.07
same,viability,[1]; 0.6 µM,0.913
same,viability,[1]; 3 µM,0.783
same,viability,[1]; 15 µM,0.845
same,viability,[2]; 0.024 µM,0.89
same,viability,[2]; 0.12 µM,0.925
same,viability,[2]; 0.6 µM,0.928
same,viability,[2]; 3 µM,0.952
same,viability,[2]; 15 µM,1.05
same,viability,[3]; 0.024 µM,0.918
same,viability,[3]; 0.12 µM,0.898
same,viability,[3]; 0.6 µM,0.914
same,viability,[3]; 3 µM,0.92
same,viability,[3]; 15 µM,0.929
same,viability,[4]; 0.024 µM,0.85
same,viability,[4]; 0.12 µM,0.996
same,viability,[4]; 0.6 µM,0.889
same,viability,[4]; 3 µM,0.867
same,viability,[4]; 15 µM,0.897
same,viability,[5]; 0.024 µM,0.913
same,viability,[5]; 0.12 µM,0.978
same,viability,[5]; 0.6 µM,0.953
same,viability,[5]; 3 µM,0.926
same,viability,[5]; 15 µM,1.01
same,viability,[6]; 0.024 µM,0.903
same,viability,[6]; 0.12 µM,0.997
same,viability,[6]; 0.6 µM,0.855
same,viability,[6]; 3 µM,0.873
same,viability,[6]; 15 µM,0.989
same,viability,[7]; 0.024 µM,0.934
same,viability,[7]; 0.12 µM,0.973
same,viability,[7]; 0.6 µM,0.935
same,viability,[7]; 3 µM,0.969
same,viability,[7]; 15 µM,0.984
same,viability,[8]; 0.024 µM,0.993
same,viability,[8]; 0.12 µM,1
same,viability,[8]; 0.6 µM,0.995
same,viability,[8]; 3 µM,0.936
same,viability,[8]; 15 µM,1
same,viability,[9]; 0.024 µM,0.902
same,viability,[9]; 0.12 µM,0.951
same,viability,[9]; 0.6 µM,0.886
same,viability,[9]; 3 µM,0.885
same,viability,[9]; 15 µM,0.954
same,viability,[10]; 0.024 µM,0.868
same,viability,[10]; 0.12 µM,0.958
same,viability,[10]; 0.6 µM,0.886
same,viability,[10]; 3 µM,0.911
same,viability,[10]; 15 µM,0.971
same,viability,[11]; 0.024 µM,0.909
same,viability,[11]; 0.12 µM,0.939
same,viability,[11]; 0.6 µM,0.887
same,viability,[11]; 3 µM,0.878
same,viability,[11]; 15 µM,0.887
same,viability,[12]; 0.024 µM,0.93
same,viability,[12]; 0.12 µM,0.956
same,viability,[12]; 0.6 µM,0.911
same,viability,[12]; 3 µM,0.925
same,viability,[12]; 15 µM,0.921
same,viability,[13]; 0.024 µM,0.921
same,viability,[13]; 0.12 µM,0.941
same,viability,[13]; 0.6 µM,0.933
same,viability,[13]; 3 µM,0.948
same,viability,[13]; 15 µM,1.1
same,viability,[14]; 0.024 µM,0.771
same,viability,[14]; 0.12 µM,0.871
same,viability,[14]; 0.6 µM,1.11
same,viability,[14]; 3 µM,0.914
same,viability,[14]; 15 µM,0.92
same,viability,[15]; 0.024 µM,1.01
same,viability,[15]; 0.12 µM,1.07
same,viability,[15]; 0.6 µM,1.07
same,viability,[15]; 3 µM,1.05
same,viability,[15]; 15 µM,1.01
same,viability,[16]; 0.024 µM,0.762
same,viability,[16]; 0.12 µM,0.764
same,viability,[16]; 0.6 µM,0.779
same,viability,[16]; 3 µM,0.797
same,viability,[16]; 15 µM,0.862
same,viability,[17]; 0.024 µM,0.897
same,viability,[17]; 0.12 µM,0.894
same,viability,[17]; 0.6 µM,0.899
same,viability,[17]; 3 µM,0.871
same,viability,[17]; 15 µM,0.818

# — the supplement of paper PMC10733146
